# Target: IgE-Tb / FcεRIα-Y131A-AF488 (Homo sapiens, UniProt P01854)
# Test: IgE-Tb / FcεRIα-Y131A-AF488 FRET assay (protocol for examples 1 to 233)
# Assay type: binding
# Conditions: examples 1 to 233: 5 nM IgE-Tb, 25 nM FcεRIα-Y131A-AF488, incubated 2 hours at room temperature; read-out: Y131A FRET IC50 range
# Method in brief: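 TR-FRET displacement with 5 nM IgE-Tb and 25 nM FcεRIα-Y131A-AF488 (final), 10-point 3-fold compound dilutions from typically 10 μM top, 2% DMSO, 2 h at room temperature. Excitation 330 nm, 520/495 nm emission ratio; MIN set with 200 nM unlabelled FcεRIα. IC50 from four-parameter logistic fit of percent inhibition.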
# IgE-Tb / FcεRIα-Y131A-AF488, sequence (P01854 1-427 limits assumed, stated change not applied): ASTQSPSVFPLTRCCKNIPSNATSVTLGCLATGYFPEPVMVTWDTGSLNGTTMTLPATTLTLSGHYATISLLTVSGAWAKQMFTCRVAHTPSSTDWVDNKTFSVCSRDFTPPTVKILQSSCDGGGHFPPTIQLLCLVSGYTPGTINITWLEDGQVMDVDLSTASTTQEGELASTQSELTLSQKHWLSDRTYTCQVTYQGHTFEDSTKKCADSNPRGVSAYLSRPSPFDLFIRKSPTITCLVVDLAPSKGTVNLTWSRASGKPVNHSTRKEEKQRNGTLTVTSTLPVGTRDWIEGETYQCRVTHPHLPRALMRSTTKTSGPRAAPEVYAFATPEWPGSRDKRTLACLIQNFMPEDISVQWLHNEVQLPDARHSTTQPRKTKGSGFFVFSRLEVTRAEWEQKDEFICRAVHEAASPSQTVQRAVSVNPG
row,Structure (SMILES),IC50
1,"CCc1cc(Nc2nncn2[C@H]2CCc3sc(NC(=O)C4CC4)c(C(=O)NCC4CC4)c3C2)n(C)n1 [Example 228, (5S)-2-(cyclopropanecarbonylamino)-N-(cyclopropylmethyl)-5-[3-[(5-ethyl-2-methyl-pyrazol-3-yl)amino]-1,2,4-triazol-4-yl]-4,5,6,7-tetrahydrobenzothiophene-3-carboxamide]",< 1000 nM
2,"Cn1nc(C(F)F)cc1Nc1nncn1[C@H]1CCc2sc(NC(=O)C3CC3)c(C(=O)NCC3CC3)c2C1 [Example 229, (5S)-2-(Cyclopropanecarbonylamino)-N-(cyclopropylmethyl)-5-[3-[[5-(difluoromethyl)-2-methyl-pyrazol-3-yl]amino]-1,2,4-triazol-4-yl]-4,5,6,7-tetrahydrobenzothiophene-3-carboxamide]",< 1000 nM
3,"Cc1cn(C)nc1Nc1nncn1[C@H]1CCc2sc(NC(=O)C3CC3)c(C(=O)NCC3CC3)c2C1 [Example 230, (5S)-2-(Cyclopropanecarbonylamino)-N-(cyclopropylmethyl)-5-[3-[(1,4-dimethylpyrazol-3-yl)amino]-1,2,4-triazol-4-yl]-4,5,6,7-tetrahydrobenzothiophene-3-carboxamide]",< 1000 nM
4,"COC(=O)c1cc(Nc2nncn2[C@H]2CCc3sc(NC(=O)C4CC4)c(C(=O)NCC4CC4)c3C2)n(C)n1 [Example 231, Methyl 5-[[4-[(5S)-2-(cyclopropanecarbonylamino)-3-(cyclopropylmethylcarbamoyl)-4,5,6,7-tetrahydrobenzothiophen-5-yl]-1,2,4-triazol-3-yl]amino]-1-methyl-pyrazole-3-carboxylate]",< 1000 nM
5,"Cn1nc(C(F)(F)F)cc1Nc1nccn1[C@H]1CCc2sc(NC(=O)C3CC3)c(C(=O)NCC3CC3)c2C1 [Example 232, (5S)-2-(Cyclopropanecarbonylamino)-N-(cyclopropylmethyl)-5-[2-[[2-methyl-5-(trifluoromethyl)pyrazol-3-yl]amino]imidazol-1-yl]-4,5,6,7-tetrahydrobenzothiophene-3-carboxamide]",< 1000 nM
6,"Cn1nc(C(=O)O)cc1Nc1nncn1[C@H]1CCc2sc(NC(=O)C3CC3)c(C(=O)NCC3CC3)c2C1 [Example 233, 5-[[4-[(5S)-2-(Cyclopropanecarbonylamino)-3-(cyclopropylmethylcarbamoyl)-4,5,6,7-tetrahydrobenzothiophen-5-yl]-1,2,4-triazol-3-yl]amino]-1-methyl-pyrazole-3-carboxylic acid]",< 1000 nM

# Source: patent US12018021B2 (UCB Biopharma SRL, priority 2018, dated 2024)
